Test [1] has as its system HSC. As to the kind of experiment: HSC apoptosis by cell death detection ELISA. The note with it: highest concentration (80 μM), 72 hours. Type of test: cell-based. On the procedure:
Apoptosis was detected with a sandwich immunoassay system using a cell death detection ELISA kit (Roche Diagnostic Inc.). Roche's Cell Death Detection ELISA kit qualitatively and quantitatively detects the amount of cleaved DNA/histone complexes (nucleosomes) in a given sample using a sandwich-enzyme-immunoassay-based method. The cells (1×10^4 cells/well) were seeded in 100 μl medium in a 96-well plate (Nunc, Denmark) and cultured for 24 h to allow the cells to attach and then treated with three different concentrations (8 μM, 24 μM and 80 μM) of either Compound A, B, C and D for 24 h, 48 h and 72 h and the plates were incubated in 37° C. After incubation, the 96 well plates were centrifuged for 10 min at 200×g and removed supernatant and discard, then added 200 μl of lysis buffer per well using multipipetman and incubated 30 min at room temperature, microplates were centrifuged the lysate at 200×g for 10 min. After the centrifuge, 20 μl of the supernatant was transferred into the streptavidin-coated microplate, then added 80 μl of immunoreagent to each well. The microplate was covered with an adhesive foil and incubated on a shaker under gentle shaking for 2 hour at room temperature. After the incubation period, microplates were washed three times with 250-300 μl incubation buffer and 100 μl ABTS solution was added and incubated for 30 min or until color is sufficient for photometric. ABTS Stop solution was added and absorbance of the samples was measured using ELISA reader at 405 nm, reference wavelength at 490 nm.

For the next test, the system named is B16F10 cells. Put plainly: Melanin content in B16F10 cells after UV irradiation. The format is cell-based, murine. As to conditions: 10 μM for 72 hrs prior to UV irradiation; UV alone 33.80±4.6% increase over non-UV cells (7.4±0.3 μg/mg protein). The text has this:
(§1) The dermal fibroblast cell line CG1639 was obtained from the BCRC (Bioresource Collection and Research Center) and cultured in Dulbecco's modified Eagle media (DMEM, Gibco by Invitrogen) with 1% antibiotic antimycotic (Gibco by Invitrogen) and 15% fetal bovine serum (Gibco by Invitrogen). The fetal rat skin keratinocyte, FRSK cell line was obtained from the Japan HSRRB (Health Science Research Resources Bank) and cultured in Eagle's minimal essential media (MEM, Gibco by Invitrogen) supplemented with 10% fetal bovine serum (FBS) (Gibco by Invitrogen) and 1% antibiotic antimycotic (Gibco by Invitrogen). B16F10 cells, a murine melanoma cell line, were purchased from American Type Culture Collection (ATCC, Rockville, Md., USA) and was cultured in Eagle's Minimum Essential Medium (MEM; Sigma, St. Louis, Mo.) supplemented with 10% fetal bovine serum (FBS; HyClone Lab. Inc., Logan, Utah), 0.02% antibiotic-antimycotic liquid (penicillin, 10 000 U mL^−1; streptomycin, 10 000 μg mL^−1 and amphotericin B, 25 μg mL^−1; Invitrogen, Carlsbad, Calif.).
(§2) To investigate the induction of melanogenesis and the oxidative stress by direct UV irradiation, melanoma cells and keratocytes were irradiated with 8 J cm^−2 of UVA (FL15BLB, 352 nm, 15 W; Toshiba, Tokyo, Japan) and 10 mJ cm^−2 of UVB (G15T8E, 306 nm, 15 W; Sankyo Denki, Tokyo, Japan) in a HANKS' balanced salt solution (Sigma). The UV intensity was measured by using a Model UVX Digital Radiometer (UVP Inc., Upland, Calif.).
(§3) B16F10 and FRSK cells were exposed to Hepasim compounds A-D by two different concentrations (3 or 10 μM) for 72 hrs prior to UVA irradiation. DMEM was replaced with phosphate buffered saline (PBS) to avoid generation of medium-derived toxic photoproducts prior to UV irradiation. Cells were collected 24 hrs after UVA irradiation and assayed. For preparation of cell lysate, the harvested cells were pelleted by centrifugation and lysed in lysis buffer containing 50 mM Tris-HCl, 10 mM ethylene diaminetetraacetic acid (EDTA), 1% (v/v) Tri-ton X-100, phenylmethylsulfonyl fluoride (PMSF) (100 mg/ml) and pepstatin A (1 mg/ml) in DMSO and leupeptin (1 mg/ml) in H2O, pH 6.8. The cells were centrifuged at 10,000 rpm for 10 min and the total cell lysate was collected and stored at −80° C.
In order to measure the melanin contents, B16F10 cells were sonicated on ice and the mixture was centrifuged (25 000 g, 10 min, 4° C.). The supernatant was transferred, and pellets were dissolved in 0.85 N KOH at 60° C. for 20 min. Standard melanin (Sigma) was incubated in parallel. Spectrophotometric analysis of melanin content was then performed at an absorbance of 405 nm

In the next test the target is T1, tyrosinase (Mus musculus, UniProt P11344).
T1 construct: endogenous in cells; host or cells: B16F10 murine melanoma cells (ATCC), total cell lysate
T1 sequence (P11344 19-533): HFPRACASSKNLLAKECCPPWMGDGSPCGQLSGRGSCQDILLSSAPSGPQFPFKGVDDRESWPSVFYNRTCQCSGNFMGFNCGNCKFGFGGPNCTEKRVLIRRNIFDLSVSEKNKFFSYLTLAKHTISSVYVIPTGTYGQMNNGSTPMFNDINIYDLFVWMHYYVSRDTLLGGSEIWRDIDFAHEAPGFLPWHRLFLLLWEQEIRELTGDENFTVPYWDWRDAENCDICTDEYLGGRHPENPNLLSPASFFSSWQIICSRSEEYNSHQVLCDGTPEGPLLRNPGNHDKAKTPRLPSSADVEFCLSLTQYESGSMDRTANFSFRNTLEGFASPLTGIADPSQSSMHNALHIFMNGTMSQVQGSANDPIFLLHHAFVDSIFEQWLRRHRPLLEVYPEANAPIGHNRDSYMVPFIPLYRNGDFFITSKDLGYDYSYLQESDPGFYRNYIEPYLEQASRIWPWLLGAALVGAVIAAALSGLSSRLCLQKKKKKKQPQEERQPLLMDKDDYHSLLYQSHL
As to the kind of experiment: Cellular tyrosinase activity assay (L-DOPA oxidation) in B16F10 cells exposed to UV. Type of test: cell-based, murine. As to conditions: UV alone 52.55±4.36% increase over non-UV control (3.0±0.5 U/mg protein).
Excerpt: as §1, §2, §3
The rate of L-DOPA oxidation was measured to assess cellular tyrosinase activity in B16F10 cells exposed to UV. The assay was performed as below described, 20 mM L-DOPA used as the substrates was added to each lysate in a 96-well plate and absorbance of dopachrome formation was measured spectrophotometrically at 475 nm every 10 min for 1 h at 37° C. by a spectrophotometer. The tyrosinase activity was calculated by comparison to a standard curve using tyrosinase (2034 U/mg) and was expressed as unit/mg protein. The data are expressed as a percentage of the tyrosinase activity (unit/mg protein) of non-irradiated and untreated control cells (100%).

In test [2] the test system is HSC. Put plainly: HSC proliferation by BrdU assay. The format is cell-based. As to conditions: highest concentration (80 μM), 72 hours. As for the experimental part: The Cell Proliferation ELISA, BrdU kit was designed to quantitate cell proliferation bases on the measurement of BrdU incorporation during DNA synthesis in proliferation cells. Briefly, cells (1×10^4 cells/well) were seeded in 100 μl medium in a 96-well plate (Nunc, Denmark) and cultured for 24 h to allow the cells to attach and then treated with three different concentrations ([…]) of either Compound A, B, C and D for 24 h, 48 h and 72 h and the plates were incubated in 37° C. After incubation, the culture medium was labeled with 10 μl/well BrdU (Roche Diagnostic Inc.), and the cells were reincubated for addition 16 h at 37° C. Labeling medium was removed using 10 min centrifuge at 200×g and blow dried. Cells were fixed using 200 μl FixDenat solution and incubated for 30 min at room temperature. Removing the FixDenat solution, 100 μl of anti-BrdU-POD was added and incubated for 90 min at room temperature. After the incubation period, microplates were washed three times with PBS buffer and 100 μl substrate solution was added and incubated for 30 min. Stop solution was added (25 μl of 1 M H2SO4) and absorbance of the samples was measured using ELISA reader at 450 nm.

As to `CC(C)=CCOc1ccc([C@H]2C(=O)N(O)C(=O)[C@@H]2CC(C)C)cc1` (relative stereo) [Compound D, (3R*,4S*)-1-hydroxy-3-isobutyl-4-[4-(3-methyl-2-butenyloxy)phenyl]pyrrolidine-2,5-dione], the “apoptosis of HSC (cell death detection assay)” value in the test with HSC [1] was “same but delayed”. Besides, in the test with B16F10 cells, the “melanin production in UV-irradiated B16F10 cells” value is 26.32±2.3%. Also, the “tyrosinase activity in UV-irradiated B16F10 cells” value was 38.5±4.5% on tyrosinase (3 μM) and 29.25±2.6% on tyrosinase (10 μM). Also, the “HSC proliferation (BrdU assay)” value in the test on HSC [2] is “same but delayed”.
As to `CC(C)=CCOc1ccc(C2=C(CC(C)C)C(=O)OC2=O)cc1` [Compound A, 3-isobutyl-4-[4-(3-methyl-2-butenyloxy)phenyl]furan-2,5-dione], the “melanin production in UV-irradiated B16F10 cells” value with B16F10 cells is 23.25±5.5%. The “tyrosinase activity in UV-irradiated B16F10 cells” value was 43.50±3.5% on tyrosinase (3 μM) and 26.75±2.3% at tyrosinase (10 μM).

Values taken from patent publication US9572760B2, “Uses of compounds and mixtures from Antrodia cinnamomea mycelia” (Simpson Biotech Co., Ltd., priority 2013, dated 2017).
